Columns and labels:
Assay in all cases: combination Emax (second highest fraction inhibited in the dose matrix, 72 h); higher = more inhibition; extreme values may be limits of the assay
[1] = test system: Becker (Low Grade Glioma)
Method in brief: (§1)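 Bliss excess equals the observed combination effect minus the expected value EA + EB − EA·EB, where EA and EB are the effects of each agent alone. Combination Emax is the second-highest inhibition within the matrix. Inhibition was scaled from CellTiter-Glo 2.0 luminescence, with 0 set by vehicle wells and 1 by blank wells, after 72 hours of two-drug dosing of cells plated in 1536-well plates.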

CHL-1 (Melanoma) = test system: CHL-1 (Melanoma)
Method in brief: as §1

[2] = test system: CML-T1 (Chronic Myelogenous Leukemia)
Method in brief: as §1

[3] = test system: COLO-684 (Endometrial Carcinoma)
Method in brief: as §1

[4] = test system: EB-3 (Burkitt's Lymphoma)
Method in brief: as §1

ES-2 (Ovarian Carcinoma) = test system: ES-2 (Ovarian Carcinoma)
Method in brief: as §1

[5] = test system: FLO-1 (Esophageal Adenocarcinoma)
Method in brief: as §1

[6] = test system: HCC-44 (Lung Adenocarcinoma)
Method in brief: as §1

HuO-3N1 (Osteosarcoma) = test system: HuO-3N1 (Osteosarcoma)
Method in brief: as §1

KYM-1 (Rhabdomyosarcoma) = test system: KYM-1 (Rhabdomyosarcoma)
Method in brief: as §1

[7] = test system: KYSE-70 (Esophageal Squamous Cell Carcinoma)
Method in brief: as §1

[8] = test system: NCI-H1755 (Lung Adenocarcinoma)
Method in brief: as §1

[9] = test system: NCI-H810 (Non-Small Cell Lung Carcinoma)
Method in brief: as §1

[10] = test system: NKM-1 (Acute Myeloid Leukemia)
Method in brief: as §1

[11] = test system: OV-90 (Ovarian Carcinoma)
Method in brief: as §1

[12] = test system: PC-14 (Lung Adenocarcinoma)
Method in brief: as §1

[13] = test system: RMG-I (Ovarian Carcinoma)
Method in brief: as §1

[14] = test system: SJRH30 (Rhabdomyosarcoma)
Method in brief: as §1

[15] = test system: SK-MM-2 (Plasma Cell Myeloma)
Method in brief: as §1

[16] = test system: SW684 (Other Solid Carcinomas)
Method in brief: as §1

CS(=O)(=O)CCNCc1ccc(-c2ccc3ncnc(Nc4ccc(OCc5cccc(F)c5)c(Cl)c4)c3c2)o1 [Lapatinib] + NC1(c2ccc(-c3nc4ccn5c(=O)[nH]nc5c4cc3-c3ccccc3)cc2)CCC1 [MK-2206] (first compound max 10 µM, 7x7, partner max 10 µM)
combination Emax [1]: 0.808 | combination Emax (CHL-1 (Melanoma)): 0.5 | combination Emax [2]: 0.948 | combination Emax [3]: 0.893 | combination Emax [4]: 0.937 | combination Emax (ES-2 (Ovarian Carcinoma)): 0.936 | combination Emax [5]: 0.793 | combination Emax [6]: 0.852 | combination Emax (HuO-3N1 (Osteosarcoma)): 0.869 | combination Emax (KYM-1 (Rhabdomyosarcoma)): 0.945 | combination Emax [7]: 0.613 | combination Emax [8]: 0.88 | combination Emax [9]: 0.389 | combination Emax [10]: 0.94 | combination Emax [11]: 0.623 | combination Emax [12]: 0.993 | combination Emax [13]: 0.679 | combination Emax [14]: 0.914 | combination Emax [15]: 0.52 | combination Emax [16]: 0.686

Source: the supplement of paper PMC11061612
